According to patent US20250025451A1, “TREATMENT OF CANCER WITH KDM4 INHIBITORS” (Celgene Corporation, priority 2021, published 2025):

Tested on: 301 cancer cell lines from different tumor types
Experiment: 2D cell viability inhibition assay, broad cancer cell line panel (OncoPanel; CellTiter-Glo)
Format: cell-based
Design: key to Emax: % of DMSO control (minimum response over dose range); AUC: scale not given here
Conditions: for AUC / Emax: 168 hours; for Emax: in % (unit assumed)
Description: In a larger screening study, compound 1 was evaluated across a broad cancer cell line panel (OncoPanel; HD Biosciences) composed of 301 cancer cell lines from different tumor types.
2D cell viability inhibition assays were performed in multiwell plates seeded with cells from the panel. After seeding, the plates were cultured overnight in a humidified incubator at 37° C. to promote adherence. Assays were initiated in individual wells by adding either DMSO as a vehicle control, growth media as a blank, or serially diluted compound 1 (10 μM to 0.0005 μM with 1:3 serial dilution). Cultures were incubated for 168 hours after which the number of viable cells in each test well was assessed using the CellTiter-Glo® Luminescent Cell Viability Assay. Luminescence readouts were performed using an EnVision® Multilabel Reader and the compound 1 readouts were normalized to the DMSO control readouts, expressed as a percent of the control. Outliers were flagged out by visual inspection. Percent of control was plotted against the corresponding compound 1 concentration and the absolute IC50 value was determined using four-parameter logistic non-linear regression as the concentration where inhibition was 50% of the control. […] Emax was recorded as the minimum in y with the compound dose range. […] The sensitive/moderate/resistant calls for each cell line was determined by visually inspecting the resulting clustering dendrogram. All the analyses were done in R Core Team.

[1] = Homo sapiens, NCI-H1650, 168 h, NCIH1650 (lung, bronchioloalveolar adenocarcinoma)
[2] = Homo sapiens, NCI-H1755, 168 h, NCIH1755 (lung, adenocarcinoma)
[3] = Homo sapiens, NCI-H1838, 168 h, NCIH1838 (lung, non-small cell carcinoma)
[4] = Homo sapiens, NCI-H2009, 168 h, NCIH2009 (lung, adenocarcinoma)
[5] = Homo sapiens, ONS-76, 168 h, ONS76 (central nervous system, NS)
[6] = Homo sapiens, OVCAR-3, 168 h, NIHOVCAR3 (ovary, NS)
[7] = Homo sapiens, RPMI-7951, 168 h, RPMI7951 (skin, NS)
[8] = Homo sapiens, SAOS-2, 168 h, SAOS2 (bone, NS)
[9] = Homo sapiens, SCC-9, 168 h, SCC9 (upper aerodigestive tract, squamous cell carcinoma)
[10] = Homo sapiens, SCC-15, 168 h, SCC15 (upper aerodigestive tract, squamous cell carcinoma)
[11] = Homo sapiens, SCC-25, 168 h, SCC25 (upper aerodigestive tract, squamous cell carcinoma)
[12] = Homo sapiens, SK-HEP1, 168 h, SKHEP1 (liver, adenocarcinoma)
[13] = Homo sapiens, SK-MEL-24, 168 h, SKMEL24 (skin, NS)
[14] = Homo sapiens, SK-N-SH, 168 h, SKNSH (autonomic ganglia, NS)
[15] = Homo sapiens, SK-OV-3, 168 h, SKOV3 (ovary, adenocarcinoma)
[16] = Homo sapiens, SNU-C1, 168 h, SNUC1 (large intestine, adenocarcinoma)
[17] = Homo sapiens, SW837, 168 h, SW837 (large intestine, adenocarcinoma)
[18] = Homo sapiens, SW1417, 168 h, SW1417 (large intestine, adenocarcinoma)
[19] = Homo sapiens, TE-15, 168 h, TE15 (oesophagus, squamous cell carcinoma)
[20] = Homo sapiens, UACC-812, 168 h, UACC812 (breast, ductal carcinoma)
[21] = Homo sapiens, VCaP, 168 h, VCAP (prostate, adenocarcinoma)
[22] = KASUMI1 (haematopoietic and lymphoid tissue, acute myeloid leukaemia)
[23] = KG1 (haematopoietic and lymphoid tissue, acute myeloid leukaemia)
[24] = KURAMOCHI (ovary, undifferentiated carcinoma)
[25] = KYSE70 (oesophagus, squamous cell carcinoma)
[26] = LU99 (lung, large cell carcinoma)
[27] = MDAMB157 (breast, ductal carcinoma)
[28] = MDAMB 175 VII (breast, ductal carcinoma)
[29] = NCI-H1435, 168 h, NCIH1435 (lung, non-small cell carcinoma)
[30] = NCIH596 (lung, mixed adenosquamous carcinoma)
[31] = NCIH1395 (lung, adenocarcinoma)
[32] = NCIH1435 (lung, non-small cell carcinoma)
[33] = NCIH1563 (lung, adenocarcinoma)
[34] = NCIH1573 (lung, adenocarcinoma)
[35] = NCIH1650 (lung, bronchioloalveolar adenocarcinoma)
[36] = NCIH1755 (lung, adenocarcinoma)
[37] = NCIH1838 (lung, non-small cell carcinoma)
[38] = NCIH2009 (lung, adenocarcinoma)
[39] = NMCG1 (central nervous system, NS)
[40] = ONS76 (central nervous system, NS)
[41] = SCC9 (upper aerodigestive tract, squamous cell carcinoma)
[42] = SCC15 (upper aerodigestive tract, squamous cell carcinoma)
[43] = SCC25 (upper aerodigestive tract, squamous cell carcinoma)
[44] = SNUC1 (large intestine, adenocarcinoma)
[45] = SW579 (thyroid, anaplastic carcinoma)
[46] = SW579, 168 h, SW579 (thyroid, anaplastic carcinoma)
[47] = SW837 (large intestine, adenocarcinoma)
[48] = SW1271 (lung, small cell carcinoma)
[49] = SW1271, 168 h, SW1271 (lung, small cell carcinoma)
[50] = SW1417 (large intestine, adenocarcinoma)
[51] = T24 (urinary tract, transitional cell carcinoma)
[52] = TE1 (oesophagus, squamous cell carcinoma)
[53] = TE8 (oesophagus, squamous cell carcinoma)
[54] = TE15 (oesophagus, squamous cell carcinoma)
[55] = UACC812 (breast, ductal carcinoma)
[56] = VCAP (prostate, adenocarcinoma)

SMILES: CC(C)c1ccc(N(C)c2ccc3c(c2)OCC[C@H]3CNc2cnccc2C(=O)O)cc1 [Compound 1, 3-({[(4R)-7-{methyl[4-(propan-2-yl)phenyl]amino}-3,4-dihydro-2H-1-benzopyran-4-yl]methyl}amino)pyridine-4-carboxylic acid]
- EC50 [1]: ≥ 10 µM
- IC50 [1]: ≥ 10 µM
- EC50 [2]: ≥ 10 µM
- IC50 [2]: ≥ 10 µM
- EC50 [3]: ≥ 10 µM
- IC50 [3]: ≥ 10 µM
- EC50 [4]: 8.02 µM
- IC50 [4]: ≥ 10 µM
- EC50 [5]: ≥ 10 µM
- IC50 [5]: ≥ 10 µM
- EC50 [6]: ≥ 10 µM
- IC50 [6]: ≥ 10 µM
- EC50 [7]: ≥ 10 µM
- IC50 [7]: ≥ 10 µM
- EC50 [8]: ≥ 10 µM
- IC50 [8]: ≥ 10 µM
- EC50 [9]: ≥ 10 µM
- IC50 [9]: ≥ 10 µM
- EC50 [10]: ≥ 10 µM
- IC50 [10]: ≥ 10 µM
- EC50 [11]: ≥ 10 µM
- IC50 [11]: ≥ 10 µM
- EC50 [12]: ≥ 10 µM
- IC50 [12]: ≥ 10 µM
- EC50 [13]: ≥ 10 µM
- IC50 [13]: ≥ 10 µM
- EC50 [14]: ≥ 10 µM
- IC50 [14]: ≥ 10 µM
- EC50 [15]: ≥ 10 µM
- IC50 [15]: ≥ 10 µM
- EC50 [16]: ≥ 10 µM
- IC50 [16]: ≥ 10 µM
- EC50 [17]: ≥ 10 µM
- IC50 [17]: ≥ 10 µM
- EC50 [18]: ≥ 10 µM
- IC50 [18]: ≥ 10 µM
- EC50 [19]: ≥ 10 µM
- IC50 [19]: ≥ 10 µM
- EC50 [20]: 6.95 µM
- IC50 [20]: ≥ 10 µM
- EC50 [21]: ≥ 10 µM
- IC50 [21]: ≥ 10 µM
- AUC [22]: 0.8823
- Emax [22]: 81.08
- AUC [23]: 0.9592
- Emax [23]: 80.44
- AUC [24]: 0.8742
- Emax [24]: 73.85
- AUC [25]: 0.6942
- Emax [25]: 50.19
- AUC [26]: 0.79
- Emax [26]: 64.66
- AUC (MALME3M (skin, NS)): 0.9867
- Emax (MALME3M (skin, NS)): 94.08
- AUC [27]: 0.8362
- Emax [27]: 64.71
- AUC [28]: 0.7385
- Emax [28]: 60.66
- AUC (MDAMB231 (breast, NS)): 0.7262
- Emax (MDAMB231 (breast, NS)): 55.94
- AUC (MDAMB361 (breast, NS)): 1.117
- Emax (MDAMB361 (breast, NS)): 94.55
- AUC (MDAMB415 (breast, NS)): 0.9413
- Emax (MDAMB415 (breast, NS)): 83.39
- AUC (MDAMB436 (breast, NS)): 0.8438
- Emax (MDAMB436 (breast, NS)): 70.42
- AUC (MDAMB468 (breast, NS)): 0.6972
- Emax (MDAMB468 (breast, NS)): 50.87
- AUC (MEWO (skin, NS)): 0.7237
- Emax (MEWO (skin, NS)): 56.56
- EC50 [29]: ≥ 10 µM
- IC50 [29]: ≥ 10 µM
- AUC (NCIH441 (lung, adenocarcinoma)): 0.7804
- Emax (NCIH441 (lung, adenocarcinoma)): 67.49
- AUC [30]: 0.8151
- Emax [30]: 61.34
- AUC [31]: 0.8542
- Emax [31]: 70.68
- AUC [32]: 0.7612
- Emax [32]: 60.04
- AUC [33]: 0.9652
- Emax [33]: 93.507
- AUC [34]: 0.7482
- Emax [34]: 53.57
- AUC [35]: 0.8746
- Emax [35]: 68.07
- AUC [36]: 1.29
- Emax [36]: 123.3293
- AUC [37]: 0.7858
- Emax [37]: 60.0585
- AUC [38]: 0.7914
- Emax [38]: 55.69
- AUC (NIHOVCAR3 (ovary, NS)): 0.7771
- Emax (NIHOVCAR3 (ovary, NS)): 59.47
- AUC [39]: 0.7013
- Emax [39]: 47.06
- AUC [40]: 0.7336
- Emax [40]: 54.63
- AUC (RPMI7951 (skin, NS)): 0.8067
- Emax (RPMI7951 (skin, NS)): 66.31
- AUC (SAOS2 (bone, NS)): 1.081
- Emax (SAOS2 (bone, NS)): 92.52
- AUC [41]: 0.9424
- Emax [41]: 69.25
- AUC [42]: 0.9489
- Emax [42]: 90.39
- AUC [43]: 0.7789
- Emax [43]: 62.3079
- AUC (SKHEP1 (liver, adenocarcinoma)): 0.7091
- Emax (SKHEP1 (liver, adenocarcinoma)): 44.3029
- AUC (SKMEL24 (skin, NS)): 0.7882
- Emax (SKMEL24 (skin, NS)): 58.12
- AUC (SKMEL31 (skin, NS)): 0.7393
- Emax (SKMEL31 (skin, NS)): 59.49
- AUC (SKNSH (autonomic ganglia, NS)): 0.7295
- Emax (SKNSH (autonomic ganglia, NS)): 53.89
- AUC (SKOV3 (ovary, adenocarcinoma)): 0.9901
- Emax (SKOV3 (ovary, adenocarcinoma)): 96.03
- AUC [44]: 0.7478
- Emax [44]: 55.45
- AUC [45]: 0.9203
- Emax [45]: 79.98
- EC50 [46]: ≥ 10 µM
- IC50 [46]: ≥ 10 µM
- AUC [47]: 0.7109
- Emax [47]: 46.73
- AUC [48]: 0.8179
- Emax [48]: 65.38
- EC50 [49]: ≥ 10 µM
- IC50 [49]: ≥ 10 µM
- AUC [50]: 0.9634
- Emax [50]: 91.96
- AUC [51]: 0.9289
- Emax [51]: 75.74
- AUC [52]: 0.938
- Emax [52]: 84.54
- AUC [53]: 0.816
- Emax [53]: 72.1307
- AUC [54]: 1.084
- Emax [54]: 89.04
- AUC [55]: 0.8418
- Emax [55]: 62.67
- AUC [56]: 0.7822
- Emax [56]: 62.6
